The source of these data is paper PMC11963559, “Identification of novel thiazole derivatives as flaviviral protease inhibitors effective against Dengue (DENV2) and Japanese encephalitis viruses” (Antimicrobial Agents and Chemotherapy, 2025).

Test [1] has as its system JEV. Kind of test: Time course of JEV genomic RNA accumulation in BHK-21 cells (qRT-PCR). The format is cell-based. The conditions noted are these: JEV MOI 0.1, BHK-21, 10 µM; for effect on viral genomic RNA abundance at early time points: 1 and 9 hpi; for effect on viral genomic RNA abundance at later time point: 18 hpi. The text has this:
This is because the initial translation of the viral RNA genome leads to the production of a viral polyprotein, which upon processing by the NS2B–NS3 protease, leads to the generation of viral RdRp (NS5) and other NS proteins necessary for RNA synthesis ([15]). Thus, inhibition of the NS2B–NS3 protease by the two potential compounds should affect viral genomic RNA accumulation within infected cells only at later time points post-infection ([46]). To validate this hypothesis, we assessed the effect of the compounds upon dynamic accumulation of viral RNA at different times of post-infection. Cells were infected with the virus in the absence or presence of 3aq or 3au (10 µM) and harvested at different time points post-infection, and viral genomic RNA copies were estimated using qRT-PCR. […] As expected, the abundance of viral genomic RNA remained low at the early time points of infection (1 and 9 hpi) and subsequently peaked at 18 hpi (Fig. 9B). […] This is an indirect effect of NS2B–NS3 protease inhibition, which in turn blocks polyprotein processing and assembly of the viral RNA synthesis machinery.
Fig 9 Detailed molecular mechanism of the inhibitory action of the compounds. (A and B) BHK-21 cells were infected with JEV virus (MOI = 0.1) for 1, 9, and 18 h with or without 10 µM of compounds. Total RNA extracted at indicated times was evaluated by qRT-PCR. The data are expressed as fold changes of the viral RNA levels normalized to GAPDH control relative to the corresponding DMSO treated samples at each time point. (B) Same experiment as in (A) but expressed as relative to the initial inoculation amount (at 1 hpi). BHK-21 cells were infected with JEV (MOI: 0.1) and treated with 3au (C) and 3aq (D) pre + during + post (−3), during + post (0), and post (3, 6, 9) infection. Viral RNA load were assessed at 24 hpi using qRT-PCR. The data are expressed as fold changes of the viral RNA levels normalized to GAPDH control relative to the corresponding DMSO-treated sample. Each experiment is performed in biological triplicate and repeated thrice. Statistical significance was analyzed by two-tailed equal variance Student’s t-test: *P < 0.05, **P < 0.01, ***P < 0.001, and ****P < 0.0001.
(§1) To quantify the viral RNA copy number, quantitative RT-PCR (qRT-PCR) was performed in duplicate using iTaq Universal SYBR Green Supermix (Bio-Rad). The cDNAs used for qPCR analysis were prepared using Power SYBR Green PCR Master Mix (Bio-Rad, #172–5125) in a QuantStudio5 Applied Biosystems real-time PCR system. […] Delta Ct for both control and compound-treated samples was determined and subsequently analyzed by determining the delta Ct to determine the mRNA expression of target genes in control vs treated samples.
On the technique in general: Real-time PCR tracks product formation cycle by cycle.

Test [2] relates to JEV. Description: JEV replication in BHK-21 cells, viral RNA by qRT-PCR. The format is cell-based. The following applies: for IC50: BHK-21, 24 h, read-out: IC50, reduction of JEV viral RNA. How it is done: Therefore, we sought to evaluate the efficacy of these compounds against JEV to assess their broad-spectrum anti-viral action against flaviviruses.
BHK-21 cells were seeded in a 24-well cell culture plate at a density of (0.25 × 10^6 cells/well) with regular growth medium containing DMEM + 10% FBS 1 day prior to infection in triplicate. Once the cells reached 85%–90% confluence, they were infected with DENV2 and JEV virus inoculum comprising DMEM + 2% FBS and 10 µM of the compound at an MOI of 0.1. Cells were incubated for 1.5 h at 37 °C with the virus-compound inoculum, with gentle rocking every 10 min to ensure even coverage and prevent the cellular monolayer from drying. […] The cell culture supernatant was aspirated and washed with PBS, and the cellular monolayer was used for viral RNA isolation.
Total cellular RNA was extracted from BHK-21 cells using TRIzol reagent, according to the manufacturer’s instructions (Ambion Life Technologies, USA). RNA quantity and integrity were determined prior to use on a NanoDrop spectrophotometer (Thermo Fisher Scientific). Then, 1 µg of total RNA from each experimental sample was used to synthesize cDNA by reverse transcriptase (RT) by incubating the RNAs with Moloney murine leukemia virus (M-MuLV) RT, with specific RT primer, 5′-[…]-3′ (Tm = 63 °C), and deoxynucleoside triphosphates (dNTPs) (New England Biolabs) at 42 °C for 50 min, followed by inactivation at 70 °C for 15 min.
as §1

For `COc1ccc(-c2csc(N/N=C(\C)c3cc(O)cc(O)c3)n2)cc1` [3au], in the test with JEV [1], the “effect on viral genomic RNA abundance at early time points” value is on record as “no effect” and the “effect on viral genomic RNA abundance at later time point” value was “drastic effect”. Also, the IC50 (commonly the concentration needed to halve the response being measured) with JEV [2] stood at 1.16 ± 0.16 µM. The “SI, selectivity index (CC50/IC50)” value in the test with JEV [2] (JEV, BHK-21 cells, qRT-PCR IC50) worked out at 67.8.

For the molecule `COc1ccc(-c2csc(N/N=C(\C)c3ccc(O)cc3)n2)cc1` [3aq], in the test with JEV [1], the “effect on viral genomic RNA abundance at early time points” value was “no effect” and the “effect on viral genomic RNA abundance at later time point” value was “drastic effect”. For the same molecule, in the test with JEV [2], the IC50 is 1.03 ± 0.21 µM.
